Source: paper PMC11843585, “A drug-resistant β-lactamase variant changes the conformation of its active-site proton shuttle to alter substrate specificity and inhibitor potency” (The Journal of Biological Chemistry, 2025)
Several values for one entry are separate records, joined by “and”; a condition that tells them apart may be missing. Identical values can stand only once. Entries after “also recorded” stand apart in the source; their conditions may differ.

Legend:
[1] = target: T1, CTX-M-14 K234R β-lactamase (Escherichia coli, UniProt Q9L5C7, K237R); assay: Steady-state kinetics of β-lactam hydrolysis, K234R enzyme; type: biochemical; conditions: for Km / kcat: 25 °C, pH 7.0
T1 construct: His6 (TEV-cleavable) (N, cleaved yes); made in house; host or cells: E. coli BL21(DE3), pET28a-CTX-M-14 with K234R
Protocol: (§1) Michaelis–Menten steady-state kinetic parameters of CTX-M-14 β-lactamases were determined on various β-lactam substrates. Wavelength and extinction coefficients used for detection were as follows: ampicillin, 235 nm, Δε = 900 M^−1 cm^−1; cephalothin, 262 nm, Δε = 7,660 M^−1 cm^−1; cefotaxime, 264 nm, Δε = 7,250 M^−1 cm^−1; nitrocefin, 482 nm, Δε = 15,000 M^−1 cm^−1; cefpodoxime, 235 nm, Δε = 1,023 M^−1 cm^−1; ceftriaxone, 241 nm, Δε = 2,046 M^−1 cm^−1. Enzymatic reactions were performed at 25 °C in buffer containing 50 mM sodium phosphate (pH 7.0) and 1 μg/ml BSA. Substrate hydrolysis was monitored by Beckman Coulter spectrophotometer model DU 800 (Beckman Coulter, Brea, CA, USA). Initial hydrolysis velocities of substrate were plotted as a function of concentrations and fitted into a Michaelis–Menten equation using GraphPad Prism 5 (GraphPad Software, San Diego, CA, USA) to obtain Km and kcat values. The kcat/Km values for the enzymes where kcat and Km could not be determined independently were estimated using the equation, ν = (kcat/Km)[E][S], where [S] ≪ Km ([54]).

[2] = target: T2, CTX-M-14 S130A β-lactamase (Escherichia coli, UniProt Q9L5C7, S133A); assay: Steady-state kinetics of β-lactam hydrolysis, S130A enzyme; type: biochemical; conditions: for Km / kcat: S130A; for fold decrease in kcat / fold increase in Km: S130A compared with WT
T2 construct: His6 (TEV-cleavable) (N, cleaved yes); made in house; host or cells: E. coli BL21(DE3)
Protocol: as §1

[3] = target: T3, CTX-M-14 S130A/K234R β-lactamase (Escherichia coli, UniProt Q9L5C7, K237R/S133A); assay: Steady-state kinetics of β-lactam hydrolysis, S130A/K234R enzyme; type: biochemical
T3 construct: His6 (TEV-cleavable) (N, cleaved yes); made in house; host or cells: E. coli BL21(DE3)
Protocol: as §1

TEM-1 S130G β-lactamase = tested on: TEM-1 S130G β-lactamase; parameters: method as in PMID 15981999; conditions: cited from earlier work
WT CTX-M-14 β-lactamase [4] = target: T4, WT CTX-M-14 β-lactamase (Escherichia coli, UniProt Q9L5C7); assay: Single-turnover stopped-flow kinetics, WT enzyme; type: biochemical
T4 construct: His6 (TEV-cleavable) (N, cleaved yes); made in house; host or cells: E. coli BL21(DE3), plasmid pET28a-CTX-M-14
Protocol: (§2) Single-turnover kinetics experiments were used to determine the acylation rate for the CTX-M-14 WT and K234R enzymes. Kinetic measurements were carried out at 25 °C using a using a KinTek stopped-flow instrument. Protein concentrations used in this experiment exceed the substrate concentrations. To prepare sample injection, 1 ml of increasing concentrations of CTX-M-14 proteins and 1 ml of 2.5–5 μM cefotaxime were loaded into two separate drive syringes. 5 μM cefotaxime was used for single-turnover experiments with WT CTX-M-14, whereas 2.5 μM cefotaxime was used in experiments with the K234R enzyme. Data collection times were adjusted empirically. Absorbance at 264 nm was monitored after samples in two syringes were mixed. For each selected time period, 1,000 data points were collected, and at least three kinetic traces were obtained to ensure high-quality data. Kinetic data with various protein concentrations were fitted to a single-exponential function, At=A^(−kt)+C , to determine kobs, which was then used to determine k2 by fitting kobs as a function of enzyme concentration to a hyperbola, as has been reported previously for serine β-lactamases and serine proteases ([33], [34], [35]). The deacylation rate constant, k3, was calculated from the experimental values determined for kcat and k2, using the equation, kcat = k2 × k3/(k2 + k3). Solving the equation for kcat in terms of k3 gives k3 = (k2 × kcat)/(kcat − k2). The error in the calculated value of k3 was determined by propagating the errors in k2 and kcat through the equation by adding the absolute errors for the sum (difference) in the denominator to obtain the absolute and the percentage error in kcat − k2. The percentage error of the numerator, (kcat × k2), was calculated by adding the percentage error for kcat and k2, and the final percentage and absolute errors on k3 were then obtained by adding the percentage error of the numerator and denominator to yield the percentage error in k3.

[5] = target: T1, CTX-M-14 K234R β-lactamase; assay: Single-turnover stopped-flow kinetics, K234R enzyme; type: biochemical
Protocol: as §2, with “Kinetic data with various protein concentrations were fitted to a single-exponential function, At=A^(−kt)+C , to determine kobs, which was then used to determine k2 by fitting kobs as a function of enzyme concentration to a hyperbola, as has been reported previously for serine β-lactamases and serine proteases ([33], [34], [35]).” left out, “Solving the equation for kcat in terms of k3 gives k3 = (k2 × kcat)/(kcat − k2).” left out, “The percentage error of the numerator, (kcat × k2), was calculated by adding the percentage error for kcat and k2, and the final percentage and absolute errors on k3 were then obtained by adding the percentage error of the numerator and denominator to yield the percentage error in k3.” left out

CTX-M β-lactamases = conditions: CTX-M versus TEM-1; cited from earlier work
PSE-4 β-lactamase = tested on: PSE-4 β-lactamase; parameters: method as in PMID 11148033, PMID 9756758; conditions: WT PSE-4; cited from earlier work
WT CTX-M-14 β-lactamase [6] = target: T4, WT CTX-M-14 β-lactamase; assay: Clavulanic acid inhibition (Ki, Morrison fit), WT enzyme; type: biochemical; conditions: ampicillin (100 μM) as indicator substrate, 20 min preincubation
Protocol: (§3) The Ki values for clavulanic acid inhibition of CTX-M-14 WT and variants were determined by mixing the enzymes with increasing concentrations of clavulanic acid in buffer containing 50 mM sodium phosphate (pH 7.0) and 1 μg/ml BSA and incubating at room temperature for 20 min. Enzyme activity was evaluated by monitoring the initial velocity of hydrolysis of 100 μM ampicillin using Beckman Coulter spectrophotometer model DU 800. The percentage activity was calculated by dividing the initial hydrolysis velocity for ampicillin in the presence of clavulanic acid by the velocity in the absence of clavulanic acid and plotted as a function of clavulanic acid concentration. The Ki values were obtained by fitting the data into Morrison equation using GraphPad Prism 5 ([55]).

[7] = target: T1, CTX-M-14 K234R β-lactamase; assay: Clavulanic acid inhibition (Ki, Morrison fit), K234R enzyme; type: biochemical; conditions: ampicillin as indicator substrate, 20 min preincubation
Protocol: as §3

[8] = target: T2, CTX-M-14 S130A β-lactamase; assay: Clavulanic acid inhibition (Ki, Morrison fit), S130A enzyme; type: biochemical; conditions: ampicillin as indicator substrate, 20 min preincubation
Protocol: as §3

[9] = target: T3, CTX-M-14 S130A/K234R β-lactamase; assay: Clavulanic acid inhibition (Ki, Morrison fit), S130A/K234R enzyme; type: biochemical
Protocol: as §3

TEM-1 β-lactamase K234T = tested on: TEM-1 β-lactamase K234T; parameters: method as in PMID 1910040; conditions: TEM-1 K234T versus TEM-1; cited from earlier work
WT CTX-M-14 β-lactamase [10] = target: T4, WT CTX-M-14 β-lactamase; assay: Steady-state kinetics of β-lactam hydrolysis, WT enzyme; type: biochemical
Protocol: as §1

[11] = tested on: CC1(C)S[C@@H]2[C@H](NC(=O)[C@H](N)c3ccccc3)C(=O)N2[C@H]1C(=O)O; assay: as above; type: biochemical; conditions: other: WT CTX-M-14, 25 °C, pH 7.0
Protocol: as §1

[12] = tested on: CO/N=C(\C(=O)N[C@@H]1C(=O)N2C(C(=O)O)=C(COC(C)=O)CS[C@H]12)c1csc(N)n1; assay: as above; type: biochemical; conditions: other: WT CTX-M-14, 25 °C, pH 7.0
Protocol: as §1

## CC1(C)S[C@@H]2[C@H](NC(=O)[C@H](N)c3ccccc3)C(=O)N2[C@H]1C(=O)O [Ampicillin, ampicillin]
[1]; K234R compared with WT
  change in kcat/Km (catalytic efficiency), in words: unchanged; also recorded: only modestly changed
  fold increase in Km: 9 fold
  fold increase in kcat: 5 fold
[1]; K234R compared with WT, inferred from kcat
  fold increase in acylation rate: at least 5 fold
[1]; K234R
  Km: 1050 µM
  kcat: 330 ± 33 s⁻¹
[1]; K234R, listed as ampicillin
  kcat: 330 s⁻¹
[1]; K234R, inferred from kcat
  k2 (acylation rate), lower limit based on kcat: ≥ 330 s⁻¹
  k3 (deacylation rate), lower limit based on kcat: ≥ 330 s⁻¹
[2]
  Km: 30000 µM
  fold decrease in kcat: 2 fold
  fold increase in Km: 260 fold
[2]; 25 °C, pH 7.0
  Km: 30700 µM
  kcat: 30 ± 2 s⁻¹
[3]; S130A/K234R, too high to measure
  Km: > 30000 µM
TEM-1 S130G β-lactamase
  fold reduction in hydrolysis: 10 fold

## CO/N=C(\C(=O)N[C@@H]1C(=O)N2C(C(=O)O)=C(COC(C)=O)CS[C@H]12)c1csc(N)n1 [Cefotaxime, cefotaxime]
[1]; K234R compared with WT
  fold decrease in Km: 6 fold
  fold decrease in kcat: 500 fold
  fold decrease in kcat/Km: 80 fold
[1]; K234R
  Km: 11 ± 4 µM
  kcat: 0.2 ± 0.01 s⁻¹
[1]; K234R, listed as cefotaxime
  kcat: 0.2 s⁻¹
[1]; K234R, inferred from kcat
  k3 (deacylation rate), lower limit based on kcat: ≥ 0.2 s⁻¹
[2]
  fold decrease in kcat: 1,000 fold
  fold increase in Km: 4 fold
[2]; 25 °C, pH 7.0
  Km: 260 ± 13 µM
  kcat: 0.1 ± 0.003 s⁻¹
[3]; S130A/K234R compared with K234R
  fold reduction in kcat: 400 fold
[3]; S130A/K234R compared with S130A
  fold reduction in kcat: 200 fold
[3]; S130A/K234R, 25 °C, pH 7.0
  Km: 120 ± 17 µM
  kcat: 0.0005 ± 0.0001 s⁻¹
WT CTX-M-14 β-lactamase [4]; calculated from k2 and kcat
  k3 (deacylation rate): 190 s^−1 and 190 ± 35 ^b s^−1
WT CTX-M-14 β-lactamase [4]; fit of kobs from single turnover, read-out: KD (Ks, dissociation constant)
  Kd: 74 ± 12 µM
WT CTX-M-14 β-lactamase [4]; single turnover, 5 μM cefotaxime, 25 °C
  k2 (acylation rate): 210 s⁻¹ and 210 ± 12 s⁻¹
[5]; fit of kobs from single turnover
  Kd: 42 ± 8 µM
[5]; single turnover, 2.5 μM cefotaxime, 25 °C
  k2 (acylation rate): 0.14 s⁻¹ and 0.14 ± 0.01 s⁻¹
CTX-M β-lactamases
  hydrolysis, fold faster than TEM-1: ~1,000 fold
PSE-4 β-lactamase
  kcat, fold lower than for ampicillin hydrolysis: ~2,000 fold

## O=C(O)[C@H]1/C(=C/CO)O[C@@H]2CC(=O)N21 [Clav acid, Clavulanic acid]
WT CTX-M-14 β-lactamase [6]
  Ki: 0.08 ± 0.001 µM
[7]
  Ki: 0.39 ± 0.02 µM
[8]
  Ki: 30 µM and 31 µM
[9]; S130A/K234R compared with WT
  Ki, fold above WT: 3,500 fold
[9]; S130A/K234R, ampicillin as indicator substrate, 20 min preincubation
  Ki: 270 ± 20 µM

## CC1(C)S[C@@H]2[C@H](NC(=O)Cc3ccccc3)C(=O)N2[C@H]1C(=O)O [benzylpenicillin]
TEM-1 β-lactamase K234T
  fold increase in Km: 50 fold
  fold reduction in kcat: ~50 fold

## COCC1=C(C(=O)O)N2C(=O)[C@@H](NC(=O)/C(=N\OC)c3csc(N)n3)[C@H]2SC1 [cefpodoxime]
[1]; K234R compared with WT
  fold decrease in Km: 9 fold
  fold decrease in kcat: 430 fold
  fold decrease in kcat/Km: 50 fold

## CO/N=C(\C(=O)N[C@@H]1C(=O)N2C(C(=O)O)=CCS[C@H]12)c1csc(N)n1 [ceftizoxime]
WT CTX-M-14 β-lactamase [10]
  Km, fold higher than for cefotaxime: 45 fold
  kcat, fold higher than for cefotaxime: 2 fold
  kcat/Km, fold lower than for cefotaxime: 20 fold
[1]; K234R compared with WT
  fold decrease in Km: 8 fold
  fold decrease in kcat: 320 fold
  fold decrease in kcat/Km: 40 fold

## CO/N=C(\C(=O)N[C@@H]1C(=O)N2C(C(=O)O)=C(CSc3nc(=O)c(=O)[nH]n3C)CS[C@H]12)c1csc(N)n1 [ceftriaxone]
[1]; K234R compared with WT
  fold decrease in Km: 2 fold
  fold decrease in kcat: 400 fold
  fold decrease in kcat/Km: 170 fold

## CC(=O)OCC1=C(C(=O)O)N2C(=O)[C@@H](NC(=O)Cc3cccs3)[C@H]2SC1 [cephalothin]
WT CTX-M-14 β-lactamase [10]
  kcat, fold higher than for cefotaxime: ~7 fold
  kcat/Km, fold higher than for cefotaxime: ~3 fold
[1]; K234R compared with WT
  fold decrease in Km: 20 fold
  fold decrease in kcat: 100 fold
  fold decrease in kcat/Km: 6 fold

## WT CTX-M-14 β-lactamase (Escherichia coli)
[11]
  Km: 120 ± 10 µM
  kcat: 67 ± 3 s⁻¹
  kcat/Km: 560000 ± 20000 M⁻¹ s⁻¹
[12]
  Km: 66 ± 3 µM
  kcat: 100 ± 1 s⁻¹
  kcat/Km: 1.5e+06 ± 100000 M⁻¹ s⁻¹
